Reference: ChEMBL document CHEMBL5244207, “Phenanthrenes: A Promising Group of Plant Secondary Metabolites” (J Nat Prod, 2018)
≈ marks a conversion by molar mass, not a printed value.

Columns and labels:
RAW264.7 [1] = assay: Antiinflammatory activity against mouse RAW264.7 cells assessed as inhibition of LPS-induced COX1 expression; type: functional, cell-based
RAW264.7 [2] = assay: Antiinflammatory activity against mouse RAW264.7 cells assessed as inhibition of LPS-induced COX2 expression; type: functional, cell-based
NCI-H460 = assay: Cytotoxicity against human NCI-H460 cells assessed as reduction in cell viability; type: functional, cell-based
M14 = assay: Cytotoxicity against human M14 cells assessed as reduction in cell viability; type: functional, cell-based
[3] = Hemolytic activity in human Neutrophil at 10 uM relative to control; type: toxicity, cell-based
[4] = Hemolytic activity in human Neutrophil assessed as hemolysis rate at 10 uM relative to control; type: toxicity, cell-based; settings: human neutrophils, read-out: Activity
RAW264.7 [5] = assay: Antiinflammatory activity in mouse RAW264.7 cells assessed as reduction in LPS-induced nitric oxide production; type: functional, cell-based
[6] = Antioxidant activity assessed as DPPH radical scavenging activity incubated for 30 mins by spectrophotometric analysis; type: functional
Rattus norvegicus [7] = assay: Anxiolytic activity in rat assessed as head tips at 5 mg/kg by elevated plus maze test; type: functional
Rattus norvegicus [8] = assay: Anxiolytic activity in rat assessed as increase in time spent in open arm at 5 mg/kg by elevated plus maze test; type: functional
Rattus norvegicus [9] = assay: Anxiolytic activity in rat assessed as number of entries in open arm at 5 mg/kg by elevated plus maze test; type: functional
[10] = Toxicity in brine shrimp assessed as lethality; settings: artemia salina
[11] = tested on: Staphylococcus epidermidis; assay: Antibacterial activity against Staphylococcus epidermidis assessed as reduction in bacterial growth; type: functional, organism-based
Staphylococcus aureus = assay: Antibacterial activity against Staphylococcus aureus assessed as inhibition of bacterial growth; type: functional, organism-based
C6 = assay: Neuroprotective activity in rat C6 cells assessed as NGF secretion level; type: functional
BV-2 = assay: Antiinflammatory activity in mouse BV2 cells assessed as reduction in LPS-induced nitric oxide production; type: functional, cell-based
Trichophyton rubrum [12] = assay: Antimicrobial activity against Trichophyton rubrum assessed as inhibition zone at 5 ug/disk; type: functional; settings: read-out: IZ
Trichophyton rubrum [13] = assay: Antimicrobial activity against Trichophyton rubrum assessed as inhibition zone at 10 ug/disk; type: functional; settings: read-out: IZ

SMILES: COC1=CC(=O)c2c(ccc3cc(OC)c(O)cc23)C1=O
- IC50 (RAW264.7 [1]): 0.08 µM
- IC50 (RAW264.7 [2]): 0.27 µM

SMILES: COC1=CC(=O)c2c(ccc3cccc(O)c23)C1=O
- IC50 (NCI-H460): 5 µM
- IC50 (M14): 1.5 µM

SMILES: C=Cc1cc(O)cc2ccc3c(C)c(O)ccc3c12
- Activity [3]: 5.3
- hemolysis at 10 µM [4]: 11.3%
- IC50 (RAW264.7 [5]; Mus musculus, RAW264.7): 12.7 µM
- IC50 (RAW264.7 [5]; raw264.7): 10.5 µM
- IC50 [6]: 1.7 µM

SMILES: C=Cc1c(C)c(O)cc2ccc3c(C)c(O)ccc3c12
- Activity (Rattus norvegicus [7]): >80
- Time (Rattus norvegicus [8]): 56.54 s
- IC50 (RAW264.7 [5]; Mus musculus, RAW264.7): 15.6 µM
- Activity (Rattus norvegicus [9]): >6

SMILES: O=P1(N(CCCl)CCCl)NCCCO1 (stereo not given) [CYCLOPHOSPHAMIDE ANHYDROUS]
- LC50 [10]: 16.4 µg/mL (≈ 62.8 µM)

SMILES: COc1cc(O)c2c(c1C)CCc1cc(O)c(C)cc1-2
- IC50 [11]: 12.5 µg/mL (≈ 46.2 µM)
- IC50 (Staphylococcus aureus): 12.5 µg/mL (≈ 46.2 µM)

SMILES: COc1cc2c(ccc3cc(OC)c(O)c(OC)c32)cc1O
- Activity (C6): 162.4%
- IC50 (BV-2): 19.6 µM

SMILES: CC(=O)N1CCN(c2ccc(OCC3COC(Cn4ccnc4)(c4ccc(Cl)cc4Cl)O3)cc2)CC1 (stereo not given) [KETOCONAZOLE]
- zone of inhibition at 5 µg/disc (Trichophyton rubrum [12]): 15.7 mm

SMILES: COc1cc2c(c(OC)c1O)-c1c(ccc(O)c1O)CC2
- zone of inhibition at 10 µg/disc (Trichophyton rubrum [13]): 12.7 mm
